Source: patent publication US10383834B2, “Reduced dose intravenous acetaminophen” (MALLINCKRODT HOSPITAL PRODUCTS IP LIMITED, priority 2007, dated 2019)

What was measured:
[1] = Subject Global Evaluations in Phase III open-label multi-day study of IV acetaminophen (4 point categorical rating scale); format: in vivo, human; settings: for Subject Global Assessment, level of satisfaction with the study treatments, difference versus control group: any of the assessment points
Method: A Phase III, open-label, prospective, multi-center, repeated dose, randomized, multi-day safety and efficacy study was conducted in 213 subjects. The subjects were randomized as follows: 92 subjects to a q6 group (1 g of IV acetaminophen every 6 hours), 91 subjects to a q4 group (650 mg of IV acetaminophen every 4 hours), and 28 subjects to a standard of care control group, which could include oral acetaminophen, but no IV acetaminophen. […] The primary endpoint was an assessment of safety using spontaneous adverse event reporting and daily liver enzymes. Efficacy evaluations were also performed. All analyses of efficacy were conducted on the modified intent-to-treat population separately for the two indications (acute pain and fever). Subjects' Global Evaluations were summarized descriptively (n, mean, SD, median, minimum, and maximum) by treatment group for each study day and for overall assessments. Summary statistics were also provided for each site. Comparisons of efficacy endpoints between the following pairs of treatment groups were investigated using two-sided tests at the 5% level of significance: • IV acetaminophen 1 g versus IV acetaminophen 650 mg • IV acetaminophen 1 g versus standard of care treatment • IV acetaminophen 650 mg versus standard of care treatment A one-way analysis of variance (ANOVA) model with treatment group as the factor was used to test the treatment difference between these pairs. All groups were included in this analysis model. The p-values from the ANOVA model were presented along with the summary statistics. […] A one-way ANOVA model with treatment group as the factor was used to test the treatment difference between each treatment pair: • IV acetaminophen 1 g q6h versus IV acetaminophen 650 mg […] • IV acetaminophen 1 g q6h versus standard of care treatment (Control) • IV acetaminophen 650 mg […] versus standard of care treatment (Control) All endpoints were tested at the 0.05 significance level (two-sided).

[2] = Safety assessment in Phase III open-label multi-day study (adverse event reporting, daily liver enzymes, laboratory, vital signs); format: in vivo, human; settings: for Tolerability: up to 5 days
Method: A Phase III, open-label, prospective, multi-center, repeated dose, randomized, multi-day safety and efficacy study was conducted in […] subjects. The subjects were randomized as follows: 92 subjects to a q6 group (1 g of IV acetaminophen every 6 hours), 91 subjects to a q4 group (650 mg of IV acetaminophen every 4 hours), and 28 subjects to a standard of care control group, which could include oral acetaminophen, but no IV acetaminophen. Subjects who completed 5 days of study treatment included 63 in the q6 group, 59 in the q4 group and 26 in the control group. The primary endpoint was an assessment of safety using spontaneous adverse event reporting and daily liver enzymes. Efficacy evaluations were also performed.
All analyses of safety were conducted on the safety population.
Percentage of subjects withdrawn due to adverse event, percentage of subjects with adverse events (AEs) or serious adverse events (SAEs), and percentage of subjects with clinically meaningful changes in laboratory parameters were summarized.
All adverse events and serious adverse events were coded according to the Medical Dictionary for Regulatory Activities (MedDRA), Version 10.0. […] Liver function test abnormalities were graded using the Common Terminology Criteria for Adverse Events.
For each clinical laboratory parameter, descriptive statistics (n, mean, standard deviation, median, and range) were tabulated for baseline and final values. Change from baseline was tabulated for those subjects who had both baseline and final values. Liver function tests were also evaluated using values that were normalized to the upper limit of normal values for the local laboratory.
A shift table was prepared to present the shift in baseline clinical laboratory values that were clinically relevantly high or low at baseline and/or final measurement.
Descriptive statistics (n, mean, standard deviation, median, and range) were tabulated for changes in vital signs from baseline to final measurement.

For CC(=O)Nc1ccc(O)cc1 [IV acetaminophen, acetaminophen], the “Subject Global Assessment, level of satisfaction with the side effects related to study treatments, mean rating” value (from here on “Subject Global Assessment, level … mean rating”) ([1]; 650 mg q4h IV, day 4, scale 0-3, control 2.2, p=0.1162) was 2.5, the “Subject Global Assessment, level … mean rating” value ([1]; 650 mg q4h IV, day 5 24 h lookback, scale 0=poor to 3=excellent, control 2.0, p=0.0167) was 2.4 and the “Subject Global Assessment, level … mean rating” value ([1]; 650 mg q4h IV, end of day 5 prior to discharge 24 h lookback, scale 0-3, control 2.0, p=0.0129) was 2.4. The “Efficacy conclusion based upon the global satisfaction ratings” value ([1]; 650 mg q4h group) was “efficacious”, the “Subject Global Assessment, level of satisfaction with the study treatments, difference versus control group” value ([1]; 650 mg q6h group (so in the source) versus standard of care control) was “no statistically significant differences” and the “Subject Global Assessment, level … mean rating” value ([1]; 1 g q6h IV, day 4, scale 0-3, control 2.2, p=0.0744) was 2.5. The “Subject Global Assessment, level … mean rating” value ([1]; 1 g q6h IV, day 5 24 h lookback, scale 0-3, control 2.0, p=0.0062) was 2.4, the “Subject Global Assessment, level … mean rating” value ([1]; 1 g q6h IV, end of day 5 prior to discharge 24 h lookback, scale 0-3, control 2.0, p=0.0073) was 2.5 and the “Efficacy conclusion based upon the global satisfaction ratings” value ([1]; 1 g q6h group) was “efficacious”. The “Subject Global Assessment, level of satisfaction with the study treatments, difference versus control group” value ([1]; 1 g q6h group versus standard of care control) was “no statistically significant differences”, the “Subject Global Assessments (study treatments or side effects), difference between the two active treatment groups” value ([1]; 1 g q6h versus 650 mg q4h, daily 24 h lookback day 2 to end of day 5) was “no statistically significant differences” and the Tolerability ([2]; 650 mg dose group (q4h)) was “well tolerated”. The Tolerability ([2]; 1000 mg dose group (q6h)) was “well tolerated”, the “Frequency of liver enzyme elevations seen in the treatment groups” value ([2]; between treatment groups, includes alanine aminotransferase and aspartate aminotransferase) was “comparable” and the “Frequency of serious, severe, related, or overall treatment emergent adverse events (TEAEs), difference between the treatment groups” value ([2]; q6 (1 g), q4 (650 mg) and standard of care control groups) was “no clinically relevant differences”.
